How the values were obtained:
[1] = system: CD4+CD25− T cell proliferation; test: AMP-mediated suppression of CD4+CD25− T cell proliferation; format: cell-based; conditions: primary human CD4+CD25− T cells, 100 or 200 μM AMP, 72 hours, CFSE
Experimental: In an assay for AMP-mediated T-cell suppression, primary human CD4^+ T cells depleted of CD25^+ cells were isolated from the content of leukocyte cones and used as effector cells; each cone was processed separately. Briefly, the content from a leukocyte cone was diluted in PBS, then layered over FICOLL-PAQUE® Plus (GE Healthcare, Chalfont St Giles, UK) and centrifuged at 400×g for 40 minutes with brakes turned off. Peripheral blood mononuclear cells (PBMC) were then isolated from the interface and washed with PBS by centrifugation at 200×g for 10 minutes. Supernatant was discarded and cells were suspended in PBS. Viable cells were determined, then pelleted at 350×g for 5 minutes and suspended in ROBOSEP buffer (Stem Cell, Grenoble, France) at a concentration of 5×10^7 per mL. […]
Isolated effector cells were labeled with CFSE probe (3 μM) using the CELLTRACE CFSE cell proliferation kit (Life Technologies, Paisley, UK) at a cell density of 1×10^6 cells per mL in PBS containing 0.1% BSA with an incubation period of 15 minutes at 37° C. […] Phen0203 hIgG1 was received as a ready-to-use formulation (Medlmmune, Gaithersburg, Md.) and was diluted in phosphate-buffered saline (PBS). R347 was received as a ready-to-use formulation (Medlmmune, Gaithersburg, Md.) and was diluted in PBS. […]

IFNγ = test: Mixed leukocyte reaction, IFNγ supernatant levels; format: cell-based; conditions: human mixed leukocyte reaction, 72 hours, 1 μM each agent
Experimental: (§1) The release of immune activating cytokines IFNγ and TNFα was evaluated in human mixed leukocyte cultures with anti-CD73 monoclonal antibody alone and in combination with an adenosine receptor inhibitor (A2ARi). The levels of IFNγ and TNFα in supernatants were detected by ELISA. Human peripheral blood lymphocytes were set up in a mixed leukocyte reaction for 72 hours and stimulated with anti-CD73 alone, A2AR inhibitor alone or both agents. Peripheral blood mononuclear cells from pairwise combinations of 8 donors were incubated for 72 hours in the presence of 1 μM anti-CD73 antibody MEDI9447 and 1 μM A2ARi SCH58261, either alone or in combination. After incubation, supernatant levels of Interferon gamma (IFNγ) and Tumor Necrosis Factor Alpha (TNFα) were measured using a Mesoscale ELISA plate. The levels of IFNγ and TNFα observed after incubation with each compound were plotted as duplicate fold-control values using levels from incubation with an isotype control antibody as a negative control.

TNFα = test: Mixed leukocyte reaction, TNFα supernatant levels; format: cell-based; conditions: human mixed leukocyte reaction, 72 hours, 1 μM each agent
Experimental: as §1

[2] = system: CT26 murine colon carcinoma; test: CT26 syngeneic tumor model, MEDI9447 mIgG1 with anti-PD-1; format: in vivo, Balb/C mice
Experimental: Syngeneic tumors were established by subcutaneous (SC) injection of 0.1 ml of 5×10^6 CT26 cells/ml suspended in HBSS into the right flanks of 8- to 10-week-old animals.
Tumors were measured by caliper and the volumes of tumors (TV) were calculated using the following formula: TV=(L×W^2)/2 (1)
Mice were randomized into groups based on bodyweight. There were no animal substitutions. 60 female Balb/c mice were used in this study.
Animals were randomly assigned into 6 groups. Animals were administered MEDI9447(mIgG1). Test articles were administered by intraperitoneal (IP) injection twice weekly starting on Day 3.
CT26 murine colon carcinoma were implanted into syngeneic Balb/C mice and treated with anti-CD73 (MEDI9447 mIgG1; 10 mg/kg), anti-PD1 (0.5 mg/kg) or the combination (10 mg/kg anti-CD73 and 0.5 mg/kg anti-PD1). […] Tumor volumes from each group of animals were plotted for individual animals out to study day 40. No control group mice were tumor free by the end of the 40 day study period (See FIG. 6). […] None of the control group mice were tumor free by the end of the study. CT26 tumors were measured in mice treated with anti-CD73 (MEDI9447 mIgG1), anti-PD1 or the combination of anti-CD73 and anti-PD1. Mice were measured until study day 40, and humanely sacrificed once tumors reached 2000 mm^3. […] Median survival increased from 25 and 33 days (anti-CD73 and anti-PD1, respectively) compared to “undefined” at day 40 for the combination.

[3] = study day 40, anti-CD73 10 mg/kg, anti-PD1 0.5 mg/kg, ip 2x weekly, 4 doses

| Compound | T cell proliferation in the presence of AMP [1] | IFNγ supernatant levels (IFNγ) | TNFα supernatant levels / secretion (TNFα) | Median survival ([2]; CT26, followed until study day 40) [days] | Survival [2, 3] [%] | Tumor free mice [2, 3] [%] |
| --- | --- | --- | --- | --- | --- | --- |
| Nc1nc2c(cnn2CCc2ccccc2)c2nc(-c3ccco3)nn12 [SCH58261, reference compound] | increase of T-cell proliferation | capable of inducing | capable of inducing | – | – | – |
| Nc1ncnc2c1ncn2[C@@H]1O[C@H](COP(=O)(O)CP(=O)(O)O)[C@@H](O)[C@H]1O [APCP, adenosine 5′-(α,β-methylene)diphosphate] | increase of T-cell proliferation | – | – | – | – | – |
| MEDI9447 mIgG1: anti-CD73 antibody MEDI9447 in murine IgG1 format | – | capable of inducing | capable of inducing | 25 | 10 | 10 |
